According to patent US20230181482A1, “LIPIDS FOR DELIVERY OF NUCLEIC ACID SEGMENTS” (AstraZeneca AB, priority 2021, published 2023):
Each block holds one molecule with its values, some of them ahead of it.

Tests used:
[1] = mRNA encapsulation efficiency of LNP formulations (Quant-it Ribogreen assay with Triton-X100); assay type: physicochemical; details: DMPE-PEG2000
Outline: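 LNPs of ionizable lipid/cholesterol/DSPC/polymer-lipid (50/38.5/10/1.5 mol%, 12.5 mM total lipid) formed by microfluidic mixing with eGFP mRNA in 50 mM citrate, pH 3, at 3:1 aqueous:ethanol and N/P 3:1 or 6:1. Encapsulation efficiency measured by RiboGreen with and without Triton-X100 disruption.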

[2] = LNP particle size by dynamic light scattering (Zetasizer Nano ZS); assay type: physicochemical; details: DMPE-PEG2000
Outline: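 eGFP mRNA in 50 mM citrate (from pH 3 buffer) was mixed microfluidically (Aq:EtOH 3:1, 12 mL/min) with ethanolic lipids, ionizable lipid/cholesterol/DSPC/polymer-conjugated lipid 50/38.5/10/1.5 mol %, 12.5 mM total, at N/P 3:1 or 6:1. Dynamic light scattering gave z-average diameter. Number-weighted distributions used refractive index 1.45.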

[3] = tested on: human broncho-epithelial cell line 16HBE; assay: In vitro expression of eGFP in 16HBE cells (GFP ELISA); assay type: cell-based; details: for eGFP in 16HBE: LNP formulation nos. 1 and 7 (N/P 3:1), 24 h, 125 ng mRNA per well, (standard error of the mean); for Ratio Lipid/MC3: ratio of eGFP expression in 16HBE to the MC3 formulation
Method: In vitro expression of EGFP protein from LNP formulation nos. 1 and 7 described in Example 58 was tested in the human broncho-epithelial cell line 16HBE (Sigma-Aldrich SCC150. 16HBE cells were maintained in DMEM, low glucose with GlutaMAX™+pyruvate (Gibco 21885-025) supplemented with MEM Non-Essential Amino Acids (Gibco 11140035) and 10% Heat-Inactivated Fetal Calf Serum (HI-FCS). The cells were cultured at 37° C. in a humidified atmosphere with 5% CO2. The day prior to an experiment, cells were detached from culture flasks using TrypLE™ (Gibco 12604013) and seeded in cell culture treated 96-well plates (Greiner Bio-One #655090) at a density of 20.000 cells per well. At the day of an experiment, 1 hour before incubation with LNPs, medium was removed and replaced with 95 ul DMEM including 1% HI-FCS. After 1 hour of conditioning, 5 ul of LNPs in PBS was added and mixed by a Bravo robot, resulting in a final concentration of 50-125 ng mRNA per well. Cells were then incubated for 24 h at 37° C. in a humidified atmosphere with 5% CO2. Absolute quantification of EGFP protein was done using ELISA (GFP SimpleStep ELISA kit, Abcam #ab171581). After 24 h of incubation, cells were lysed by adding 100 ul of lysis buffer to each well (Lysis buffer included in the kit, or Abcam products #ab193970 and #ab193971) Cells were then lysed by a freeze-thaw cycle in lysis buffer. Lysates were measured in appropriate dilutions according to the kit manufacturer's instructions. Results are reported as number of EGFP molecules expressed per mRNA dosed, after 24 h, calculated from the values of 125 ng mRNA per well. Results are plotted as Mean+SEM from triplicate values.
The expression of eGFP in 16HBE cytosol proves the function of the used LNP composition of eGFP mRNA in promoting gene transfection and […]. The quantification of eGFP allows to compare different LNP compositions with the MC3-based lipid composition, used as a comparator, with regard to the induction of protein expression in 16HBE to obtain the ratio of lipid to MC3. In this application, the LNP compositions differ in their ionizable lipid (IL) component. […] (see FIG. 1).

Female BALB/c mice = assay: eGFP expression in the liver at 24 hours after intravenous administration of LNP formulations to mouse (ELISA); assay type: in vivo; details: LNP N/P 3:1, DMPE-PEG2000
Outline: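 Mice (6-8 weeks, n=4/group) received a slow IV tail-vein bolus of LNP formulation at 0.3 mg/kg. Livers were harvested 24 hours post-dose and eGFP quantified by ELISA.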

[4] = Table 1, LNP with eGFP mRNA, N/P ratio 3:1
[5] = Table 1, number-average particle diameter, N/P ratio 3:1
[6] = Table 1, z-average particle diameter, N/P ratio 3:1

- % EE [1, 4]: 99%
- % EE ([1]; Table 3, N/P ratio 3:1): 98%
- % EE ([1]; Table 4, N/P ratio 3:1): 98%
- % EE ([1]; Table 5, N/P ratio 3:1): 98%
- % EE ([1]; Table 6, N/P ratio 3:1): 98%
- <d>N (nm) [2, 5]: 72 nm
- <d>Z (nm) [2, 6]: 86 nm
- <d>N (nm) ([2]; Table 3, N/P ratio 3:1): 63 nm
- <d>Z (nm) ([2]; Table 3, N/P ratio 3:1): 79 nm
- <d>N (nm) ([2]; Table 4, N/P ratio 3:1): 71 nm
- <d>Z (nm) ([2]; Table 4, N/P ratio 3:1): 88 nm
- <d>N (nm) ([2]; Table 5, N/P ratio 3:1): 66 nm
- <d>Z (nm) ([2]; Table 5, N/P ratio 3:1): 82 nm
- <d>N (nm) ([2]; Table 6, N/P ratio 3:1): 61 nm
- <d>Z (nm) ([2]; Table 6, N/P ratio 3:1): 74 nm
SMILES: CCCCC/C=C\C/C=C\CCCCCCCCC(CCCCCCCC/C=C\C/C=C\CCCCC)OC(=O)CCCN(C)C [MC3, [(10Z,13Z)-1-[(9Z,12Z)-octadeca-9,12-dienyl]nonadeca-10,13-dienyl] 4-(dimethylamino)butanoate, reference compound]
- eGFP in 16HBE [3]: 0.023 (±0.001) number of protein molecules per number of dosed mRNA molecules
- Ratio Lipid/MC3 [3]: 1
- Liver eGFP protein (ng/g tissue) (Female BALB/c mice; Table 3, 0.3 mg/kg): 3091.5 ng/g tissue
- Liver eGFP protein (ng/g tissue) (Female BALB/c mice; Table 4, 0.3 mg/kg): 916.4 ng/g tissue
- Liver eGFP protein (ng/g tissue) (Female BALB/c mice; Table 5, 0.3 mg/kg): 1114.4 ng/g tissue
- Liver eGFP protein (ng/g tissue) (Female BALB/c mice; Table 6, 0.3 mg/kg): 3802.0 ng/g tissue

- % EE [1, 4]: 97%
- % EE ([1]; Table 1, LNP with eGFP mRNA, N/P ratio 6:1): 94%
- <d>N (nm) [2, 5]: 68 nm
- <d>N (nm) ([2]; Table 1, number-average particle diameter, N/P ratio 6:1): 57 nm
- <d>Z (nm) [2, 6]: 84 nm
- <d>Z (nm) ([2]; Table 1, z-average particle diameter, N/P ratio 6:1): 74 nm
SMILES: CCCCCC(CCCCC)CCOC(=O)CCCCCCCC(CCCCCCCC(=O)OCCC(CCCCC)CCCCC)NC1CC2(COC2)C1 [Compound 1, Bis(3-pentyloctyl) 9-((2-oxaspiro[3.3]heptan-6-yl)amino)heptadecanedioate]
- eGFP in 16HBE [3]: 0.044 (±0.004) number of protein molecules per number of dosed mRNA molecules
- Ratio Lipid/MC3 [3]: 1.9
